One may read the EC50 as the concentration giving half of the maximal effect. In general, EC25 refers to the concentration at which the effect reaches the 25% level. Lower therefore signals an effect from little substance.

Each structure is given as a SMILES string. Counter-ions that a name gives are not always drawn.

Data set [1] has as its system N18-RE-105 cell. Nature of the data set: Test for inhibition of BSO toxicity to neurocyte (LDH release). The format is cell-based, hybridoma of mouse neuroblastoma and rat retinal neurocyte. Conditions: for EC50: BSO 500 μM, 24 hours; for cytoprotective action to BSO toxicity in neurocyte: result in words. On the procedure: (2) Test for inhibition of BSO toxicity to neurocyte (neurocyte protective action against cytotoxicity accompanied by decrease of amount of intracellular glutathione)
The culture of neurocyte N18-RE-105, addition of the test compound, and determination of lactate dehydrogenase (LDH) were carried out in the manner as described in (1) above. BSO was added at the concentration of 500 μM.

The test system of data set [2] is N18-RE-105 cell. Kind of data set: Test for inhibition of glutamic acid toxicity to neurocyte (LDH release). In kind it is cell-based, hybridoma of mouse neuroblastoma and rat retinal neurocyte. Conditions: for EC50: 10 mM glutamic acid, 24 hours; for cytoprotective action to glutamic acid toxicity in neurocyte: result in words. The method, then: Neuron 2, 1547 (1989) and J. Pharmacol. Exp. […] The dihydrophenazinecarboxylic acid derivatives of the invention were examined in the action to the glutamic acid-induced cell death. […] Hybridoma cells were plated at 6.25×10^3 cells/cm^2. on 96 well microplate in Dalbecco's modified MEM containing 10% FBS (fetal bovine serum) and HAT (hypoxanthine 0.1 mM, aminopterin 40 nM, thymidine 0.14 mM, Sigma Chem., Co.). […] After the addition of glutamic acid, the culture was maintained for further 24 hours. Then, the activity of lactate dehydrogenase (LDH) contained in the cells and the medium was determined. The LDH releasing ratio was calculated using the below-mentioned equation to examine the glutamic acid toxicity. LDH releasing ratio=[LDH activity in medium/(LDH activity in cells and LDH activity in medium)]×100
(In general: Release of lactate dehydrogenase indicates damage to the cell membrane.)

Data set [3] has as its system glutamic acid toxicity. The following applies: J. Antibiotics, 48, 1378 (1995) and PCT WO96/22996; cited from earlier work.
The subject of data set [4] is free radical. Conditions: cited from earlier work; for antioxidant property: J. Antibiotics, 48, 1378 (1995) and PCT WO96/22996; for free radical scavenger (anti-oxidant): J. Nat. Prod., 56, 1255(1993).
In data set [5] the test system is hippocampal cells. Nature of the data set: Test for inhibition of glutamic acid toxicity to hippocampal cells in primary culture (LDH). The following applies: hippocampal cell, rat fetus, 1 mM glutamic acid, 48 hours. In kind it is cell-based. The text has this:
1) Preparation of hippocampal cells (from rat fetus in primary culture) A pregnant rat (18 days pregnancy) was anesthetized by Pentobarbital sodium. Its abdomen was sterilized using 83% ethanol and treated to take its fetus out. The whole brain was taken out from the fetus under stereomicroscopical observation. From the brain, its hippocampal portion was taken out. The hippocampal portion was cut into small pieces using a knife. The procedures for taking the hippocampal portion out and cutting the portion into small pieces were performed in a Hanks buffer solution (4° C.) without Ca^2+ and Mg^2+. The pieces of hippocampus were treated with 0.25% trypsin/0.01% DNase I solution at 37° C. for 30 minutes. After the addition of dialyzed FBS at the concentration of 20%, the treated specimen was recovered by centrifugal separation and suspended in DMEM containing GMS-A obtained from GIBCO (S1 culture medium). The specimen was gently treated by a pipet to give a cell suspension. […] 2) Determination of activity (Lactate dehydrogenase (LDH) method) The cytoprotective action of the test compound was determined by measuring activity of LDH released from the dead cells and activity of LDH in the living cells. […] After the culturing procedure was complete, the activity of lactate dehydrogenase was determined in the manner described in 1) above.

Data set [6] concerns rat whole brain homogenate. Nature of the data set: Test for inhibition of production of peroxidized lipid in rat whole brain homogenate (TBA method). In kind it is biochemical. The following applies: 10^-4 M, iron-ascorbic acid, 37° C., one hour. The text has this: (4) Test for inhibition of production of peroxidized lipid in rat whole brain homogenate
From the rat which had been fed with vitamin E deficient food for 11 weeks, a whole brain was taken out and frozen in liquid nitrogen. After the frozen whole brain was pulverized to give a powder, it was homogenized by Dounce type homogenizer. The homogenate was subjected to centrifugal separation at 180×g for 10 minuets, and the supernatant was recovered. The recovered supernatant was employed as the whole brain homogenate. The reaction of lipid peroxidation was initiated by stimulation using iron-ascorbic acid. The peroxidized lipid was quantitatively analyzed by the thiobarbituric acid (TBA) method. In more detail, 200 μL of the whole brain homogenate (protein content: 12.5 mg/mL), 50 μL of ADP (2 mg/mL), 50 μL of FeSO4 (0.5 mM), 50 μL of ascorbic acid (12 mM), and 50 μL of the test compound were added to 100 μL of 0.2M Tris-HCl buffer solution. The mixture was incubated at 37° C. for one hour. After the incubation was complete, 50 μL of 0.5% butylhydroxytoluene/ethanol solution, 250 μL of 8.1% SDS (sodium dodecylsulfate) solution, 1,750 μL of 20% acetic acid, and 1,500 μL of 0.8% TBA solution were added to the incubated mixture. The resulting mixture was boiled for one hour. […] The separated supernatant was subjected to measurement of absorbance at 535 nm.

Data set [7] relates to ddY strain male mice. Kind of data set: Acute toxicity, intravenous, mice. The format is in vivo. Conditions: 5 mg, intravenous injection. The method, then: The compound of the invention (ethyl 7-benzoyl-5,10-dihydro-1-phenazinecarboxylate obtained in Example 1) was administered to ddY strain male mice (weight: 23 to 27 g) in a dose of 5 mg by intravenous injection.
Data set [8] in a line: Stability at room temperature under atmospheric conditions. In kind it is physicochemical.

Turning to `CCOC(=O)c1cccc2c1Nc1ccc(C(=O)c3ccccc3)cc1N2Cc1ccccc1` [Compound 3, Ethyl 7-benzoyl-5-benzyl-5,10-dihydro-1-phenazinecarboxylate], the EC50 was 72 nM in data set [1] and 40.7 nM in data set [2].

`CCOC(=O)c1cccc2c1Nc1ccc(C(=O)c3ccccc3)cc1N2C(=O)OC` [Comparative, Ethyl 7-benzoyl-5,10-dihydro-5-methoxycarbonyl-1-phenazinecarboxylate]: in data set [1], the concentration giving a half-maximal response (EC50) is above 1000 nM and the “cytoprotective action to BSO toxicity in neurocyte” value is recorded as “no cytoprotective action”. Besides, in data set [2], the EC50 was above 1000 nM and the “cytoprotective action to glutamic acid toxicity in neurocyte” value is “no cytoprotective action”.

Consider `CC(C)=CCc1cc(C(=O)c2ccccc2)cc2c1Nc1c(C(=O)OC3O[C@@H](C)[C@H](O)[C@@H](O)[C@H]3O)cccc1N2CC=C(C)C` (stereo partly shown) [aestivophoenin B], for which the “inhibition of glutamic acid toxicity” value in data set [3] is listed as “inhibit glutamic acid toxicity”. For the same compound, in data set [4], the antioxidant property entry is “shows antioxidant property”.

In data set [5], `CCOC(=O)c1cccc2c1Nc1ccc(C(=O)c3ccccc3)cc1N2CC=C(C)C` [Compound 2, Ethyl 7-benzoyl-5,10-dihydro-5-(3-methyl-2-butenyl)-1-phenazinecarboxylate] showed a 25% effect concentration (EC25) of 12 nM. For the same compound, the values for the EC50 in data set [1] and in data set [2] were 96.2 nM and 14.5 nM, respectively. The “Inhibition of lipid peroxidation (% per control value)” value in data set [6] came to 60.2%.

Consider `CC(CNC(=O)c1cccnc1)NC(=O)c1cccnc1` (stereo not shown) [Nicarven, nicaraven], for which, in data set [1], the EC50 was above 100000 nM and the “cytoprotective action to BSO toxicity in neurocyte” value is recorded as “no cytoprotective action”. In data set [2], the EC50 was above 100000 nM and the “cytoprotective action to glutamic acid toxicity in neurocyte” value is listed as “no cytoprotective action”.

Regarding `CC(C)=CCC/C(C)=C/CN1c2cc(C(=O)c3ccccc3)ccc2Nc2c(C(=O)O)cc(C(=O)c3ccccc3)cc21` [benthophoenin], the “free radical scavenger (anti-oxidant)” value in data set [4] was “employable as a free radical scavenger (anti-oxidant)”.

In the case of `COC(=O)c1cc(C(=O)c2ccccc2)cc2c1Nc1ccc(C(=O)c3ccccc3)cc1N2C/C=C(\C)CCC=C(C)C` [its methyl ester], in data set [4], the “free radical scavenger (anti-oxidant)” value is listed as “employable as a free radical scavenger (anti-oxidant)”.

For the compound `CC(C)=CCN1c2cc(C(=O)c3ccccc3)ccc2Nc2c(C(=O)OCCCN(C)C)cccc21` [Compound 5, 3-(Dimethylamino)propyl 7-benzoyl-5,10-dihydro-5-(3-methyl-2-butenyl)-1-phenazinecarboxylate hydrochloride], in data set [5], the EC25 is 57.5 nM.

Take `CCOC(=O)c1cccc2c1Nc1ccc(C(=O)c3ccccc3)cc1N2C` [Compound 4, Ethyl 7-benzoyl-5,10-dihydro-5-methyl-1-phenazinecarboxylate]: the EC50 in data set [1] is 90 nM; in data set [2] it was 58 nM.

As to `CCOC(=O)c1cccc2c1Nc1ccc(C(=O)c3ccccc3)cc1N2` [Compound 1, Ethyl 7-benzoyl-5,10-dihydro-1-phenazinecarboxylate], the EC50 in data set [1] is 6 nM; in data set [2], 3.3 nM. In data set [7], the “death (acute toxicity)” value is given as “No death was observed”.

With `O=c1c2ccccc2[se]n1-c1ccccc1` [Ebselen, ebselen], in data set [1], the EC50 was 7500 nM and the “cytoprotective action to BSO toxicity in neurocyte” value is on record as “no cytoprotective action”. In data set [2], it took 10100 nM to reach a half-maximal effect (EC50) and the “cytoprotective action to glutamic acid toxicity in neurocyte” value is given as “no cytoprotective action”.

Consider `CCOC(=O)c1cccc2c1Nc1ccccc1N2` [ethyl 5,10-dihydro-1-phenazinecarboxylate], for which, in data set [8], the stability entry was “unstable at room temperature”.

For `CC(C)=CCN1c2cc(C(=O)c3ccccc3)ccc2Nc2c(C(=O)OC3O[C@@H](C)[C@H](O)[C@@H](O)[C@H]3O)cccc21` (stereo partly shown) [aestivophoenin A], in data set [3], the “inhibition of glutamic acid toxicity” value is recorded as “inhibit glutamic acid toxicity”. Moreover, the antioxidant property result in data set [4] was “shows antioxidant property”.

(Values after US6150363A, “Dihydrophenazinecarboxylic acid derivatives” (priority 1996, dated 2000).)
